The results in this text go back to ChEMBL document CHEMBL1201862, “PubChem BioAssay data set” (2004).

Test systems include IGROV-1; EKVX; SK-OV-3; A549; OVCAR-4; OVCAR-8; HCT-15; NCI-H23; LOX IMVI; KM12; 786-0; SR; SF-295; OVCAR-3; SN12C; UACC-62.
Holding throughout (assay): NCI anticancer screen, dose series, 48 h

Each structure is given as a SMILES string.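 Five concentrations, 48 hours, 96-well plates. Abbreviation: GI50, concentration required for 50% inhibition of growth.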 The source made the active and inactive calls. Rule as the data show it: active = GI50 up to about 1.1 µM and inactive = higher. Some results are limits rather than exact numbers.

For `O=C1C=CC(=O)c2cc(Sc3ccccc3)c(=O)c(Sc3ccccc3)cc21`, the GI50 with IGROV-1 is 68.5 µM (inactive); in the assay on EKVX, > 100 µM (inactive); in the assay with SK-OV-3, 43.2 µM (inactive); in the assay with A549, 56.5 µM (inactive); in the assay on OVCAR-4 it was 53.3 µM (inactive); with OVCAR-8, 31.7 µM (inactive). Moreover, the GI50 was 50.6 µM with HCT-15; 47.2 µM (inactive) in the assay on NCI-H23; > 100 µM (inactive) with LOX IMVI; > 100 µM (inactive) in the assay with KM12; 88.5 µM (inactive) in the assay with 786-0; 25.5 µM (inactive) in the assay on SR. The GI50 with SF-295 was > 100 µM (inactive); in the assay on OVCAR-3, 50.9 µM (inactive); in the assay on SN12C it was > 100 µM (inactive); in the assay on UACC-62, 24.8 µM (inactive).
With `COc1cc(OC)c(C2CC=Cc3c(OC)cc(OC)c(OC)c32)cc1OC` (centres undefined), the GI50 in the assay with IGROV-1, in the assay on EKVX, with SK-OV-3, with A549, with OVCAR-4 and with OVCAR-8 was > 100 µM (inactive) each time. Further, the GI50 with HCT-15 is greater than 100 µM; with NCI-H23, > 100 µM (inactive); in the assay on LOX IMVI, > 100 µM (inactive); in the assay on KM12, > 100 µM (inactive); in the assay on 786-0 it was > 100 µM (inactive); in the assay on SR, > 100 µM (inactive). Besides, the GI50 in the assay with SF-295, in the assay on OVCAR-3, with SN12C and in the assay with UACC-62 was > 100 µM (inactive) throughout.
Turning to `Cc1cccc(C)c1CO`, the GI50 in the assay on IGROV-1, with EKVX, in the assay on SK-OV-3, in the assay on A549, in the assay on OVCAR-4 and with OVCAR-8 was > 100 µM (inactive) each time. The GI50 with HCT-15 was greater than 100 µM; in the assay with NCI-H23 it was > 100 µM (inactive); in the assay on LOX IMVI, > 100 µM (inactive); in the assay on KM12 it was > 100 µM (inactive); in the assay on 786-0 it was > 100 µM (inactive); in the assay with SR, > 100 µM (inactive). Further, the GI50 in the assay with SF-295, in the assay with OVCAR-3, with SN12C and in the assay on UACC-62 was > 100 µM (inactive) in each case.
Regarding `CCCCC1(C)C=C/C(=C2/C(=O)O/C(=C\C(=O)O)C2=O)O1` (centres undefined), the GI50 with IGROV-1, in the assay with EKVX, with SK-OV-3, in the assay on A549, with OVCAR-4 and in the assay with OVCAR-8 was > 100 µM (inactive) throughout. Further, the GI50 was greater than 100 µM in the assay with HCT-15; > 100 µM (inactive) in the assay on NCI-H23; > 100 µM (inactive) in the assay with LOX IMVI; > 100 µM (inactive) in the assay on KM12; > 100 µM (inactive) with 786-0; > 100 µM (inactive) in the assay on SR. The GI50 in the assay with SF-295, in the assay with OVCAR-3, with SN12C and in the assay on UACC-62 was > 100 µM (inactive) throughout.
In the case of `O=c1c2cc(Br)ccc2nc(-c2ccccc2Cl)n1NCC1(O)OCC(O)C(O)C1O` (centres undefined), the GI50 in the assay on EKVX is > 100 µM (inactive); in the assay with SK-OV-3, > 100 µM (inactive); in the assay with A549 it was > 100 µM (inactive); with OVCAR-4, 60.7 µM (inactive); in the assay with OVCAR-8, > 100 µM (inactive); with HCT-15, greater than 100 µM. In addition, the GI50 is > 100 µM (inactive) in the assay with NCI-H23; > 100 µM (inactive) with LOX IMVI; > 100 µM (inactive) with KM12; > 100 µM (inactive) in the assay on 786-0; 35.6 µM (inactive) in the assay on SR; > 100 µM (inactive) in the assay on SF-295. The figures for the GI50 in the assay with OVCAR-3, in the assay with SN12C and in the assay on UACC-62 were 76.2 µM (inactive), > 100 µM (inactive) and > 100 µM (inactive), respectively.
